# Measured values as given in US20160039796A1, “BARETTIN AND DERIVATIVES THEREOF FOR MEDICAL USE, IN PARTICULAR FOR THE TREATMENT OF DISEASES RELATED TO OXIDATIVE STRESS OR INFLAMMATION, AND FOR PRESERVING OR WASHING ORGANS” (ABC Bioscience AS, priority 2013, published 2016).
# Key:
# [1] = system: IL-6 release from THP-1 cells; assay: LPS-induced release of IL-6 from THP-1 cells (ELISA); type: cell-based, human
# Method: Monocytes are well-recognised to respond to inflammatory stimuli by releasing a range of cytokines; IL-6 is a highly expressed pro-inflammatory cytokine in activated monocytes. The principle of this assay was to compare the effect of pre-incubating human cells from a monocyte-derived cell line (THP-1) with a known anti-inflammatory drug (dexamethasone; Dex), or a range of concentrations of barettin, on IL-6 generation in response to the inflammatory stimulus, lipopolysaccharide (LPS).
# THP-1 cells (Health Protection Agency, Porton Down, UK) were maintained at 37° C. with 5% CO2 in RPMI 1640 containing 10% foetal bovine serum, 2 mM L-glutamine with 100 IU/ml penicillin and 100 μg/ml streptomycin (PAA laboratories Ltd, Yeovil, UK). The cells were grown in suspension and then plated out in 24-well plates at 2×10^5 cells per well.
# Treatments: • a. vehicle control (RPMI 1640+0.5% DMSO) • b. 10 μM Dex for 24 h • c. 10 μg/ml LPS for 24 h • d. Pre-treated with 10 μM Dex for 30 min followed by 10 μg/ml lipopolysaccharide LPS for 24 h • e. Pre-treated with barettin at 1, 3, 10, 30 and 100 μg/ml for 30 min followed by 10 μg/ml LPS for 24 h
# The concentration of Dex and barettin remained consistent throughout the incubation period; the final DMSO concentration was 0.5%. Cells were incubated at 37° C. and 5% CO2 for 24 hours.
# Following incubations, cells and supernatants were harvested into 1.5 ml Eppendorf® tubes and supernatants were cleared of cells and debris by centrifugation at 300 g for 3 min at room temperature. Supernatants were transferred to clean 1.5 ml Eppendorf® tubes and stored at −80° C.
# IL-6 expression was measured by ELISA (eBioscience, human IL-6 Platinum ELISA) according to the manufacturer's instructions. Data were collected using a VarioSkan Flash plate reader and Skanit software v2.4.3 (Thermo Fisher Scientific, Basingstoke, UK).
# [2] = system: MRC-5 cells (normal human lung fibroblasts); assay: cytotoxicity assay, MRC-5 cells (CellTiter 96 AQueous One Solution); type: cell-based; settings: 24 h exposure, concentrations tested (FIG. 7)
# Method: (§1) Cytotoxicity was tested on HepG2 and MRC-5 cells (normal lung fibroblasts) for 2 h (HepG2) and 24 h (HepG2 and MRC-5) using the CellTiter 96 AQueous One Solution Assay (Promega). MBC-005 and MBC-007 were not toxic to the HepG2 or the MRC5 cells in the concentrations tested (FIG. 6 and FIG. 7). In the CLPAA assays the cells were exposed to the test compounds for 1 h before washed. Thus a 2 h exposure would detect whether the MBC-compounds are likely to cause cell death and false results in the CLPAA assays. MRC5 and HepG2 cells were also exposed to the barettin compounds for 24 h. This would reveal more long-term damage or whether any toxicity was caused by something other than membrane lysis. […] This was above the concentrations used in the CLPAA assay.
# (§2) HepG2 and MRC-5 cells were grown in MEM Earle's medium (F0325) supplemented with gentamycin (10 μg/ml, A2712), non-essential amino acids (1%, K0293), sodium pyruvate (1 mM, L0473), L-alanyl-L-glutamine (2 mM, K0302) and fetal bovine serum (10%, S0115) and incubated at 37° C. with 5% CO2. Media and supplements were from Biochrom (Berlin, Germany).
# (§3) Cytotoxicity was studied in HepG2 and MRC-5 cells (normal human lung fibroblasts) for 2 h (HepG2) and 24 h (HepG2 and MRC-5). […] Absorbance was measured at 485 nm in a DTX 880 Multimode Detector. Results were calculated as % survival compared to a positive control.
# [3] = cytotoxicity of isolated barettin over 72 h (data not shown); type: cell-based
# Text: MBC-005 and MBC-007 were not toxic to the HepG2 or the MRC5 cells in the concentrations tested (FIG. 6 and FIG. 7). […] This would reveal more long-term damage or whether any toxicity was caused by something other than membrane lysis. […] This was above the concentrations used in the CLPAA assay.
# [4] = FRAP (ferric reducing antioxidant power) assay; type: biochemical; settings: for FRAP value: 30 μg/ml; for FRAP dose-response: FIG. 2
# Method: The inventors used the biochemical assay FRAP (ferric reducing antioxidant power) to obtain an indication of the antioxidant potential of MBC-005 (isolated brominated) and MBC-007 (synthetic de-brominated).
# Reagents were prepared according to benzie, I.F.F. et al. Analytical Biochemistry 1996, 239, 70-76 and carried out in a DTX 880 Multimode Detector (Beckman Coulter, Calif., USA) at 595 nm. Trolox (Sigma, 238813) was used to prepare the standard curve (0-250 μM; working concentration). The FRAP reagent (TPTZ (2,4,6-Tris(2-pyridyl)-s-triazine): Fluka, 93285; Fe: Merck 103943) was prepared daily. The assay was carried out in clear 96-well plates, with 20 μl sample and 150 μl FRAP-reagent added to each well in duplicates. Water was used as a blank. Samples were incubated at 37° C. for 30 min before reading the plate. The blank was subtracted from each sample and a standard curve was created from the average absorbance of the duplicated Trolox samples. The equation generated from the standard curve was used to calculate the trolox equivalents (TE) from each sample. Results were expressed as μM TE.
# HepG2 cells [5] = assay: cytotoxicity assay, HepG2 cells (CellTiter 96 AQueous One Solution); type: cell-based; settings: 2 h and 24 h exposure, concentrations tested (FIG. 6)
# Method: as §1, §2, §3
# [6] = ORAC (oxygen radical absorbance capacity) assay; type: biochemical; settings: for ORAC dose-response: FIG. 3
# Method: The inventors used the biochemical assay ORAC (oxygen radical absorbance capacity) to obtain an indication of the antioxidant potential of MBC-005 (isolated brominated) and MBC-007 (synthetic de-brominated).
# The method has been modified from Huang, D. et al., Journal of Agricultural and Food Chemistry 2002, 50, 4437-4444. The assay was carried out in black 96-well plates (Nunc 7350004) and using a Victor3 Plate Reader (Perkin Elmer, Mass., USA) at 37° C. (exitation 486 nm, emission 520 nm). All reagents were dissolved in 75 mM phosphate buffer (PB) (pH 7,4). Different concentrations of the MBC-005 and MBC-007 preparations were added in duplicates followed by addition of 125 μl fluorescein (Fluka, 46960) (52 nM final concentration). After a 15 minute incubation at 37° C., 60 μl AAPH (2,2′-Azobis(2-methylpropionamidine) dihydrochloride; Sigma-Aldrich, 440914) was quickly added to each sample (44 mM final concentration). Fluorescence was recorded 25 times at 37° C. with a 70 sec delay between repeats. Trolox (0-25 μM working concentration) was included in each run to make a standard curve. PB was used as a blank and for the 0 μM Trolox sample. Area under the curve (AUC) was calculated by subtracting the AUCBlank values. A standard curve was created using the Trolox values and Trolox equivalents of the samples were calculated from the resulting equation. Results were expressed as μM TE.
# HepG2 cells [7] = assay: cellular lipid peroxidation antioxidant activity (CLPAA) assay; type: cell-based; settings: for activity in CLPAA assay (lipid peroxidation in HepG2 cells): FIG. 4, normalized to positive control CumOOH
# Method: as §2, with “HepG2” for “HepG2 and MRC-5”
# The inventors used the cellular lipid peroxidation antioxidant activity (CLPAA) assay. This assays measures the intracellular ROS (reactive oxygen species) and membrane antioxidant activity, respectively. The brominated barettin molecule gave a 55% reduction in oxidation compared to the control in the CLPAA assay.
# Approximately 80.000 HepG2 cells per well were seeded in black 96 well plates with clear bottom (#3603, Corning, N.Y., USA) and incubated overnight. The cells were labelled with C11-BODIPY (#D3861, Invitrogen, Eugene, Oreg.) for 30 min and incubated for 1 h with various concentrations of the test compounds. Cumene hydroperoxide (cumOOH, #247502, Sigma-Aldrich, St. Louis, Mo.) was added to initiate lipid peroxidation and the plate was immediately placed in a Victor3 Plate Reader (Perkin Elmer, Mass., USA). Both red (590/7 nm (exitation), 632/45 nm (emission)) and green (485/14 nm, 520/10 nm) fluorescence was recorded during ˜1 h. Cells were washed with PBS between additions of new reagents. Total reaction volume was 100 μl. All incubations were carried out at 37° C. with 5% CO2. Percent inhibition was calculated relative to the positive control (cumOOH without test compound).
# [8] = system: tumor necrosis factor-alpha (TNF-α) in LPS induced monocytes (THP-1 cells); assay: inhibition of TNF-α secretion in LPS induced monocytes (ELISA); type: cell-based, human; settings: 75 and 100 μg/ml, LPS induced THP-1 cells
# Method: (§4) Tumor necrosis factor-alpha (TNF-α) and Interleukin-1 beta (IL-1β) are both cytokines (small cell-signalling protein molecules) linked to inflammatory responses. Thus, the present inventors have tested the ability of isolated barettin (designated MCB-011 in the present experiment) to inhibit the secretion of these cytokines in LPS induces monocytes (THP-1 cells).
# (§5) THP-1 cells were grown in RPMI-1640 supplemented with gentamycin and FBS and incubated at 37° C. with 5% CO2. To differentiate the monocytes into macrophages, 50 ng/ml PMA was added. Approximately 10^5 cells supplemented with 50 ng/ml PMA were seeded in 96 well plates and incubated at 37° C., 5% CO2 for 48 hours. The cells were controlled using a microscope after 24 h to make sure they had started to differentiate. After 48 h the cells were washed and new RPMI (w/o PMA) added before another 24 h incubation.
# (§6) The cells were added 90 μl fresh medium and 10 μl test compound at various concentrations in duplex. After incubation for 1 h, 1 ng/ml LPS was added to all samples except negative controls. Incubation for 6 h at 37° C. followed. The reactions were stopped by freezing the plates at −80° C. immediately after incubation. One day prior to ELISA testing MaxiSorp 96F-well plates were coated with 2 μg/ml capture antibody (Ab) and placed in the refrigerator overnight. […] Results were read at DTX880 at 405 nm.
# [9] = system: Interleukin-1 beta (IL-1β) in LPS induced monocytes (THP-1 cells); assay: inhibition of IL-1β secretion in LPS induced monocytes (ELISA); type: cell-based, human; settings: 75 and 100 μg/ml, LPS induced THP-1 cells
# Method: as §4, §5, §6
smiles,measurement,setting,value
"N=C(N)NCCCC1NC(=O)/C(=C/c2c[nH]c3cc(Br)ccc23)NC1=O (stereo not drawn) [MBC-005, cyclo-[(6-bromo-8-en-tryptophan)-arginine]]","effect on LPS-induced generation of IL-6, significance",[1]; 1 μg/ml (~2.4 μN),significant
same,anti-inflammatory effect versus cytotoxicity,[1]; 30 μg/ml and below,genuine anti-inflammatory effect
same,effect on LPS-induced generation of IL-6,"[1]; 1-100 μg/ml, 30 min pre-treatment, 10 μg/ml LPS 24 h",clear concentration-dependent effect
same,IL-6 expression with compound alone (no LPS),"[1]; pilot data, THP-1 cells, compound alone",did not result in the up-regulation of IL-6 expression
same,cytotoxicity to MRC5 cells,[2],not toxic
same,concentration at which cytotoxicity appears,[3],≥ 100 µg/mL
same,FRAP value,[4],77 μM TE
same,FRAP dose-response,[4],dose-response activity was observed
same,cytotoxicity to HepG2 cells,HepG2 cells [5],not toxic
same,ORAC value (Trolox equivalents),[6]; 30 μg/ml (71.6 μM),5.5 μM TE
same,ORAC dose-response,[6],dose-response activity was observed
same,activity in CLPAA assay (lipid peroxidation in HepG2 cells),HepG2 cells [7],acts in a dose-dependent manner to reduce lipid peroxidation
same,reduction in oxidation compared to the control,"HepG2 cells [7]; HepG2 cells, cumOOH-induced lipid peroxidation",55%
N=C(N)NCCC[C@@H]1NC(=O)/C(=C/c2c[nH]c3ccccc23)NC1=O [MBC-007],cytotoxicity to MRC5 cells,[2],not toxic
same,FRAP dose-response,[4],dose-response activity was observed
same,cytotoxicity to HepG2 cells,HepG2 cells [5],not toxic
same,ORAC dose-response,[6],dose-response activity was observed
same,activity in CLPAA assay (lipid peroxidation in HepG2 cells),HepG2 cells [7]; listed as de-brominated synthetic analogue,did not show any significant activity
"N=C(N)NCCC[C@@H]1NC(=O)/C(=C/c2c[nH]c3cc(Br)ccc23)NC1=O [MBC-011, Barettin]",inhibition of TNF-α,[8],significant inhibition
same,inhibition of IL-1β,[9],significant inhibition
"O=c1cc(-c2ccc(O)c(O)c2)oc2cc(O)cc(O)c12 [luteolin, reference compound]",FRAP value,[4],151 μM TE
